Measurements from patent US20250051762A1, “PLATFORM USING DNA-ENCODED SMALL MOLECULE LIBRARIES AND RNA SELECTION TO DESIGN SMALL MOLECULES THAT TARGET RNA” (University of Florida Research Foundation, Incorporated, priority 2021, published 2025).

What was measured:
pri-miR-27a = assay: RT-qPCR of pri- and mature miR-27a in LNCaP cells; assay type: cell-based, human
Experimental: Cell lines. Compounds were tested in MDA-MB-231 TNBC cells (HTB-26, ATCC), LNCaP metastatic prostate cancer cells (gifted from Junli Luo lab), MCF-7 (HTB-22, ATCC) breast cancer cells, HeLa cervical adenocarcinoma cells (CCL-2, ATCC), and MCF-10a, a model of healthy breast epithelial cells (CRL-10317, ATCC).
Cell culture and compound treatment. All cells were maintained at 37° C. with 5% CO2. MDA-MB-231 and LNCaP cells were cultured in RPMI 1640 medium with L-glutamine & 25 mM HEPES (Corning) supplemented with 10% (v/v) fetal bovine serum (FBS; Sigma) and 1× (v/v) Antibiotic-Antimycotic solution (Corning). MCF-7 and HeLa cells were cultured in DMEM medium with 4.5 g/L glucose (Corning), supplemented with 10% FBS, 1× (v/v) Glutagro (Corning), and 1× (v/v) Antibiotic-Antimycotic solution. […]
Analysis of mRNA abundance: Each cell line was grown as a monolayer in 12- or 24-well plates and treated as described in “Cell culture and compound treatment”. […] Relative abundance of mature miRNAs was calculated by normalizing to RNU6, and relative abundance for pri-miRNAs and mRNAs was calculated by normalizing to 18S ribosomal RNA, using the AAC, method. […]

MDA-MB-231 cells = assay: Migration assay of MDA-MB-231 cells; assay type: cell-based, human
Experimental: Migration assay: MDA-MB-231 cells were grown in 60 mm diameter dishes and treated as described in “Cell culture and compound treatment” for 12 h. The medium was then removed and replaced with growth medium lacking FBS but with the same concentration of compound. After 12 h of serum starvation, the cells were detached and seeded to ThinCert™ (GBO) 24-well hanging inserts with 8 μm pores (˜5×10^4 cells per insert). Fresh growth medium with FBS was dispended in a 24-well plate (600 μL each well), and the ThinCert™ hanging inserts containing cells were then placed into the wells. After incubating for 24 h, the growth medium in the inserts was removed, and the remaining cells were washed twice with 1×DPBS. Cells were fixed by addition of 3% (w/v) paraformaldehyde (PFA) prepared in 1×DPBS at room temperature for 20 min. The PFA solution was removed, and cells were washed twice with 1×PBS. The cells were then stained with Crystal Violet (10 mg/mL; 4:1 H2O: MeOH) at room temperature for 20 min. A cotton swab was used to gently remove non-migrating cells from the top side of the filter. The remaining cells were then imaged by microscopy and counted for quantification (3 fields of view per sample).

[1] = target: 5′GAG/3′CCC loop at pri-miR-27a's Drosha site; assay: Binding affinity by microscale thermophoresis (MST), Cy5-labeled RNA; design: species or system human
Experimental: Binding affinity measurements: Binding affinities were measured by microscale thermophoresis (MST), performed on a Monolith NT.115 system (NanoTemper Technologies) with Cy5-labeled RNAs. These RNAs include: the 5′GAG/3′CCC SEQ ID NO: 16 loop at pri-miR-27a's Drosha site (Sequence:/5′-Cy5/rCrUrGrArGrGrUrGrArArArCrArUrCrCrCrArG SEQ ID NO: 17; Dharmacon), a related internal loop not selected by 9. 5′CAG/3′GCC SEQ ID NO: 17 loop (Sequence:/5′-Cy5/rCrUrCrArGrGrUrGrArArArCrArUrCrCrGrArG SEQ ID NO: 16; Dharmacon), and an RNA in which the loop is mutated to a base pair (Sequence:/5-Cy5/rCrUrGrArGrGrUrGrArArArCrArUrCrUrCrArG SEQ ID NO: 16; Dharmacon).
Briefly, Cy5-labeled RNA (10 nM) was prepared in 1× Binding Buffer and folded by heating at 60° C. for 5 min and then slowly cooling to room temperature. After cooling, Tween-20 was added to a final concentration of 0.1% (v/v). Compound solutions were prepared separately in 20 μL of 1× Binding Buffer at a final concentration of 5 μM (1% (v/v) DMSO), followed by 1:1 serial dilutions in 1× Binding Buffer. RNA and compound solutions were then mixed 1:1 by volume to a total of 20 μL.
Samples were incubated for 20 min at room temperature and then loaded into premium capillaries (NanoTemper Tech, Cat #MO-K025). The following parameters were used for MST measurements: 5-20% LED power (adjusted to keep fluorescence intensity between 2000 and 8000), 80% MST power, Laser-On time=30 s, Laser-Off time=25 s. The resulting data were analyzed by calculating the change in thermophoresis as a function of compound concentration and fitted by Equation 1, a one site binding model, in NanoTemper Tech's MST analysis software to yield the dissociation constant (Kd):
Where F is the concentration of fluorescently labeled RNA; unbound and bound refer to the thermophoresis signal at completely unbound and bound state of RNA, respectively; c is the concentration of the compound; f (c) is the thermophoresis signal at compound concentration of c; and Kd is the dissociation constant.

[2] = test system: MCF-10a cells expressing mutant pri-miR-27a; assay: Migration of MCF-10a cells expressing mutant pri-miR-27a; assay type: cell-based, human; conditions: forced expression of mutated pri-miR-27a
Experimental: MCF-10a cells were transfected with plasmids to express pri-miR-27a and mutant pri-miR-27a in 12- or 24-well plates with Lipofectamine 2000 per the manufacturer's protocol. For treatment of compounds, stocks were diluted in growth medium and added to cells for 48 h. The miRCURY miR-27a LNA inhibitor (QIAGEN, Cat #339121) was used as a positive control by diluting in growth medium to a final concentration of 1 nM. The miRCURY LNA Negative Control (QIAGEN, Cat #YI00199007-DDA) was used as a negative control, which has also diluted in growth medium to a final concentration of 1 nM.
Migration assay: MDA-MB-231 cells were grown in 60 mm diameter dishes and treated as described in “Cell culture and compound treatment” for 12 h. The medium was then removed and replaced with growth medium lacking FBS but with the same concentration of compound. After 12 h of serum starvation, the cells were detached and seeded to ThinCert™ (GBO) 24-well hanging inserts with 8 μm pores (˜5×10^4 cells per insert). Fresh growth medium with FBS was dispended in a 24-well plate (600 μL each well), and the ThinCert™ hanging inserts containing cells were then placed into the wells. After incubating for 24 h, the growth medium in the inserts was removed, and the remaining cells were washed twice with 1×DPBS. […] The remaining cells were then imaged by microscopy and counted for quantification (3 fields of view per sample).

C#CCN(CC(N)=O)C(=O)C[C@H](Cc1c[nH]c2ccccc12)NC(=O)[C@@H]1C[C@H](NC(=O)Cn2c(=O)[nH]c3ccccc3c2=O)CN1 [Compound 9]
dose with significant inhibition of miR-27a processing (pri-miR-27a): 100 nM
number of migrated cells (MDA-MB-231 cells; MDA-MB-231, normalized to vehicle): dose dependent reduction
concentration with statistically significant phenotype reduction (MDA-MB-231 cells; MDA-MB-231 migration): 100 nM
Kd [1]: 90 ± 20 nM
rescue of migratory phenotype [2]: did not inhibit biogenesis of the mutated pri-miR-27a in MCF-10A (FIG. 3B) or rescue the migratory phenotype
